Experimental data reported in patent publication US20080145340A1, “Neuroactive agents and methods of their use” (The University of Western Australia, priority 2005, published 2008).

What was measured:
Type in all cases: cell-based, rat
[1] = system: cortical neuronal cultures; experiment: Differential protein expression in preconditioned neuronal cultures, 2-D gel electrophoresis (Example 1); conditions: CHX 0.3 μg/ml for 24 h; MK801 1 μM for 30 min, then 12 h; versus untreated DIV 12 cultures
Description: Cortical tissue from E18-E19 rats was dissociated in Hibernate E medium (Invitrogen, Carlsbad, Calif., USA) supplemented with 1.3 mM L-cysteine, 10 units/ml papain (ICN, Costa Mesa, Calif., USA) and 50 units/ml DNase (Sigma, St. Louis, Mo., USA) and washed in cold Dulbecco's Modified Eagle Medium (Invitrogen)/10% horse serum.
Neurons were resuspended in Neurobasal (NB; Invitrogen)/2% B27 supplement (Invitrogen), the cell concentration was adjusted to 1.8 million neurons/2 ml and 2 ml inoculated into each well of a 6 well plate pretreated as described below.
Neuronal cultures were maintained in a CO2 incubator (5% CO2, 95% air balance, 98% humidity) at 37° C. […]
Total protein was isolated from control and preconditioned neuronal cultures at the times outlined above by removing all the media from wells and washing once with phosphate-buffered saline, before the addition of lysis buffer (7M urea, 2M thiourea, 40 mM tris-HCl, 1% sulfobetaine 3-10, 2% CHAPS, 65 mM DTT, 1% Bio-Lyte carrier ampholytes pH 3-10; Bio-Rad, Hercules, Calif., USA). […] Protein content was determined by amino acid analysis using Waters AccQ Tag chemistry (Millipore Corporation, Milford, Mass., USA) as previously described (Cohen et al., 1983, in: Angeletti, R. H. (Ed.), Techniques in Protein Chemistry IV, Academic Press, San Diego). […]

[2] = system: cortical neuronal cultures; experiment: Cumene hydroperoxide oxidative stress, neuronal survival by MTS assay (Example 4); conditions: for neuronal survival following cumene exposure: cumene 25 μM, survival 24 h later, untreated 15%, FIG. 8A
Description: (§1) Neurons were resuspended in Neurobasal (NB; Invitrogen) containing 2% B27 supplement (B27; Invitrogen).
(§2) Neuronal cultures were maintained in a CO2 incubator (5% CO2, 95% air balance, 98% humidity) at 37° C.

[3] = system: primary cortical neuronal cultures; experiment: In vitro ischaemia/stroke model, transient oxygen glucose deprivation (Example 3); conditions: protein added (0.1-100 nM) at the time of in vitro ischaemia
[4] = system: primary cortical neuronal cultures; experiment: Cumene oxidative stress injury model (Example 3); conditions: protein added (0.1-100 nM) at the time of cumene exposure
Text: Adenovirus vectors were used to upregulate specific proteins in primary cortical neuronal cultures. cDNA for proteins of interest was obtained by RT-PCR and cloned into pGEM. Sequence verified cDNA clones were then used to construct recombinant adenoviruses expressing genes of interest under the control of the rous sarcoma virus (RSV) promoter and the woodchuck post-transcriptional regulatory element (WPRE). The recombinant viruses also express the reporter GFP under the control of the CMV promoter. Protein of interest expression in recombinant adenoviruses was confirmed in transfected HEK and/or neuronal cultures. Control viruses consisted of an adenovirus expressing RFP, no gene (empty vector) and the anti-apoptotic gene Bcl-xl. […]
Cumene induced oxidative stress was performed by removing media from neuronal culture wells and adding 100 μl DMEM/N2 medium containing different concentrations of cumene (20-25 μM). […] Neuronal viability was measured and analysed as described above.

[5] = system: ERK1 (p44); experiment: rhCyPA mediated ERK1/2 phosphorylation time course, Western blot densitometry; conditions: rhCyPA 100 nM
Description: (§3) FIG. 7—time course of recombinant human (rh) CyPA mediated ERK1/2 phosphorylation in cortical neuronal cultures. Neuronal cultures were treated with rhCyPA (100 nM) for the indicated times. The resulting protein lysates were probed with antibody to detect phosphorylated ERK1/2 and then re-probed for total ERK1/2.
(§4) For protein extraction, brain tissue and cultured cells were lysed in buffer (50 mM Tris-HCl pH 7.5, 100 mM NaCl, 20 mM EDTA, 0.1% SDS, 0.2% deoxycholic acid, containing Complete™ protein inhibitor, Roche), vortexed briefly and clarified by centrifugation at 4° C. Protein concentrations were determined by the Bradford assay (Biorad, USA). Equivalent amounts of protein (5-10 μg per lane) were loaded and separated on 4-12% gradient SDS poly-acrylamide Bis-Tris mini-gels, (NuPAGE; Invitrogen) and transferred to a PVDF membrane. Membranes were blocked in PBS/T containing ovalbumin (1 mg/mL) for 1 min at room temperature before washing in PBS/T and PBS.
(§5) Membranes were incubated at 4° C. overnight in blocking solution containing primary antibody, washed and incubated in blocking solution containing HRP conjugated secondary antibody for 1 h at room temperature. Protein bands were detected using ECL Plus (Amersham, UK) and visualised by exposure to x-ray film (Hyperfilm; Amersham), scanned and quantified using NIH image. Primary antibodies used were; rabbit polyclonal anti-CyPA (1:25000; Biomol), mouse monoclonal anti-β-tubulin (0.5 μg/mL, Pharmingen, USA), mouse monoclonal anti-phospho ERK1/2 (1:5000; Santa Cruz), rabbit polyclonal anti-ERK1/2 (1:10000; Santa Cruz) and goat polyclonal anti-CD147 (1:10000; Santa Cruz). Secondary antibodies were donkey anti-rabbit IgG (1:25,000-1:50,000; Amersham), sheep anti-mouse IgG (1:10,000-1:20,000; Amersham) and rabbit anti-goat IgG (Zymed).
(§6) To determine if exogenously applied CyPA can mediate ERK1/2 activation we exposed neuronal cultures to rhCyPA protein (100 nM) and the results are summarised in FIG. 7. Addition of rhCyPA induced a rapid phosphorylation of ERK1 and ERK2, which peaked at 5 min, before returning to basal levels.

[6] = system: ERK2 (p42); experiment: as above; conditions: rhCyPA 100 nM
Description: as §3, §4, §5, §6

[7] = system: cortical neuronal cultures; experiment: In vitro ischemia, neuronal survival by MTS assay (Example 4); conditions: rhCyPA 100 nM; survival 24 h later; untreated 24%; FIG. 8B
Description: as §1, §2

## C[C@@H]1C[C@@H]([C@H](O)CC2CC(=O)NC(=O)C2)C(=O)[C@@H](C)C1 [CHX, cycloheximide]
[1]
  overall change of protein expression after preconditioning: protein down-regulation

## C[C@]12N[C@H](Cc3ccccc31)c1ccccc12 [MK801]
[1]
  overall change of protein expression after preconditioning: protein down-regulation

## CC(C)c1ccccc1.OO [cumene, cumene hydroperoxide, reference compound]
[2]; 25 μM cumene, dose response experiment, data not shown
  cell survival after exposure to cumene: 15-30%

## CyPA protein: CyPA protein suspended in PBS, added to neuronal cultures (0.1-100 nM)
[3]
  neuroprotection against in vitro ischaemia: neuroprotective
[4]
  neuroprotection against cumene insult: neuroprotective

## rhCyPA: recombinant human cyclophilin A (rhCyPA, Biomol)
[5]; at 5 min, FIG. 7
  ERK1 (p44) activation increase: 2.6 fold
[5]; then returning to basal levels
  time of peak phosphorylation of ERK1: 5 min
[6]; at 5 min, FIG. 7
  ERK2 (p42) activation increase: 3.3 fold
[6]; then returning to basal levels
  time of peak phosphorylation of ERK2: 5 min
[7]
  neuronal survival following in vitro ischemia: 35%
[2]; rhCyPA 10 nM
  neuronal survival following cumene exposure: 56%
[2]; rhCyPA 100 nM
  neuronal survival following cumene exposure: 70%
